Measured values reported in patent US12173018B2, “Penicillin-binding protein inhibitors” (priority 2018, dated 2024).

Molecular target: E. coli PBP3 (Escherichia coli (strain K12), UniProt P0AD68)
Assay: E. coli PBP3 Bocillin-FL fluorescence polarization competition binding assay
Conditions: not given
Description: To determine the ability of boronic acid-based test PBP inhibitors to bind Penicillin Binding Proteins (PBPs), Bocillin-FL (fluorescently-labeled penicillin V; ThermoFisher Scientific) was used in a fluorescence polarization (FP) competition binding assay to assess inhibitor binding to PBP2, PBP3 or PBP4 from Escherichia coli. PBPs were cloned and purified as described previously (King, D. T, et al., ACS Infectious Diseases 2015, 1, 175-184). To establish assay conditions for competition binding, an enzyme titration/saturation binding experiment was initially performed. Bocillin-FL was prepared at 0.2 μM in a buffer comprised of 50 mM Hepes (pH 8.0), 300 mM NaCl and 5% (v/v) glycerol. Saturation binding was performed by mixing 40 μl of PBP solutions ranging in concentrations from 0-12 μM with 40 μl of the 0.2 μM Bocillin-FL solution, in individual wells of a black 384-well microplate. FP was measured immediately upon mixing (Excitation, 490 nm; Emission, 520 nm; g-factor, 0.96), using a Cytation3 (BioTek) microplate reader and measured continuously for up to 120 minutes. […] Assays (80 μl final volume) were performed with PBPs at a final concentration of 1.5 μM, Bocillin-FL at 0.1 μM and beta-lactam concentrations that ranged from 0-1000 μM. […] Bocillin-FL was added and the FP immediately measured for 60 minutes (90 minutes for PBP2). The beta-lactam potency was reported as the concentration of beta-lactam required to reduce binding of Bocillin-FL by […] (EC50). […] Binding assays for boronic acid PBP inhibitors were performed in an identical fashion.

Chain of E. coli PBP3 (P0AD68 whole entry): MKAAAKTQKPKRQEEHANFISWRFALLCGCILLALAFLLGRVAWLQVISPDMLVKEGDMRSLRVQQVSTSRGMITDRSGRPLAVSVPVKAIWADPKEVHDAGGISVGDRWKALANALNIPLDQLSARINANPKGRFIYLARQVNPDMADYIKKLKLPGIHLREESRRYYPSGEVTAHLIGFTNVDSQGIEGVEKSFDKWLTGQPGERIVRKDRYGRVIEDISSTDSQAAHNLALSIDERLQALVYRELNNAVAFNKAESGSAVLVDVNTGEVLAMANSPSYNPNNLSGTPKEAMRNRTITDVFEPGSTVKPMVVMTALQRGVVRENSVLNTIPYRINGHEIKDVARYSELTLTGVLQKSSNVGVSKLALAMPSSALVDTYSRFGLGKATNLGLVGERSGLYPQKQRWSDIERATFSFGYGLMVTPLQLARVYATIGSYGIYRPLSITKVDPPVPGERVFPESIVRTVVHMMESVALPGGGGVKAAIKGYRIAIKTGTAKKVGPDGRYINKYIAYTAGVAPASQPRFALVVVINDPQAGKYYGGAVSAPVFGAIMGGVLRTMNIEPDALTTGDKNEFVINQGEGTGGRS

Row | Structure (SMILES) | EC50
1 | CCN1CCN(C(=O)NC(C(=O)N[C@H]2Cc3cccc(C(=O)O)c3OB2O)c2csc(N)n2)C(O)C1=O (stereo partly drawn) [Example 193, (3R)-3-(2-(2-aminothiazol-4-yl)-2-(4-ethyl-2-hydroxy-3-oxopiperazine-1-carboxamido)acetamido)-2-hydroxy-3,4-dihydro-2H-benzo[e][1,2]oxaborinine-8-carboxylic acid] | 30 to 500 µM
2 | CCN1CCN(C(=O)NC(C(=O)N[C@H]2Cc3cccc(C(=O)O)c3OB2O)[C@H](O)C(F)(F)F)C(=O)C1=O (mixture of isomers) [Example 157, (3R)-3-((3S)-2-(4-ethyl-2,3-dioxopiperazine-1-carboxamido)-4,4,4-trifluoro-3-hydroxybutanamido)-2-hydroxy-3,4-dihydro-2H-benzo[e][1,2]oxaborinine-8-carboxylic acid] | > 500 µM
3 | CCN1CCN(C(=O)NC(C(=O)N[C@H]2Cc3c(F)cc(F)c(C(=O)O)c3OB2O)c2csc(N)n2)C(=O)C1=O (stereo partly drawn) [Example 184, (3R)-3-(2-(2-aminothiazol-4-yl)-2-(4-ethyl-2,3-dioxopiperazine-1-carboxamido)acetamido)-5,7-difluoro-2-hydroxy-3,4-dihydro-2H-benzo[e][1,2]oxaborinine-8-carboxylic acid] | 30 to 500 µM
4 | CCN1CCN(C(=O)NC(C(=O)N[C@H]2Cc3cccc(C(=O)O)c3OB2O)c2cccc(OC)n2)C(=O)C1=O (stereo partly drawn) [Example 120, (3R)-3-(2-(4-ethyl-2,3-dioxopiperazine-1-carboxamido)-2-(6-methoxypyridin-2-yl)acetamido)-2-hydroxy-3,4-dihydro-2H-benzo[e][1,2]oxaborinine-8-carboxylic acid] | 30 to 500 µM
5 | CCN1CCN(C(=O)NC(C(=O)N[C@H]2Cc3cccc(C(=O)O)c3OB2O)c2ccc(O)c(OCCNC(=O)OCc3ccccc3)c2)C(=O)C1=O (stereo partly drawn) [Example 50, (3R)-3-(2-(3-(2-(((benzyloxy)carbonyl)amino)ethoxy)-4-hydroxyphenyl)-2-(4-ethyl-2,3-dioxopiperazine-1-carboxamido)acetamido)-2-hydroxy-3,4-dihydro-2H-benzo[e][1,2]oxaborinine-8-carboxylic acid] | 30 to 500 µM
6 | CCN1CCN(C(=O)N[C@@H](C(=O)N[C@H]2Cc3cccc(C(=O)O)c3OB2O)[C@H](C)OC)C(=O)C1=O [Example 146, (R)-3-((2R,3S)-2-(4-ethyl-2,3-dioxopiperazine-1-carboxamido)-3-methoxybutanamido)-2-hydroxy-3,4-dihydro-2H-benzo[e][1,2]oxaborinine-8-carboxylic acid] | 30 to 500 µM
7 | CCN1CCN(C(=O)NC(CC(=O)N[C@H]2Cc3cccc(C(=O)O)c3OB2O)c2cc(O)c(O)c(Br)c2)C(=O)C1=O (stereo partly drawn) [Example 42, (3R)-3-(3-(3-bromo-4,5-dihydroxyphenyl)-3-(4-ethyl-2,3-dioxopiperazine-1-carboxamido)propanamido)-2-hydroxy-3,4-dihydro-2H-benzo[e][1,2]oxaborinine-8-carboxylic acid] | 30 to 500 µM
8 | CCN1CCN(C(=O)NC(C(=O)N[C@H]2Cc3cccc(C(=O)O)c3OB2O)C2CCCO2)C(=O)C1=O (stereo partly drawn) [Example 122, (3R)-3-(2-(4-ethyl-2,3-dioxopiperazine-1-carboxamido)-2-(tetrahydrofuran-2-yl)acetamido)-2-hydroxy-3,4-dihydro-2H-benzo[e][1,2]oxaborinine-8-carboxylic acid] | 30 to 500 µM
9 | CCN1CCN(C(=O)NC(C(=O)N[C@H]2Cc3cc(F)c(F)c(C(=O)O)c3OB2O)c2csc(N)n2)C(=O)C1=O (stereo partly drawn) [Example 175, (3R)-3-(2-(2-aminothiazol-4-yl)-2-(4-ethyl-2,3-dioxopiperazine-1-carboxamido)acetamido)-6,7-difluoro-2-hydroxy-3,4-dihydro-2H-benzo[e][1,2]oxaborinine-8-carboxylic acid] | 30 to 500 µM
10 | CCN1CCN(C(=O)N[C@@H](C(=O)N[C@H]2Cc3ccc(F)c(C(=O)O)c3OB2O)[C@H](O)C(F)(F)F)C(=O)C1=O [Example 158, (R)-3-((2R,3S)-2-(4-ethyl-2,3-dioxopiperazine-1-carboxamido)-4,4,4-trifluoro-3-hydroxybutanamido)-7-fluoro-2-hydroxy-3,4-dihydro-2H-benzo[e][1,2]oxaborinine-8-carboxylic acid] | 30 to 500 µM
11 | CCN1CCN(C(=O)N[C@H](C(=O)N[C@H]2Cc3ccc(F)c(C(=O)O)c3OB2O)c2ccsc2)C(=O)C1=O [Example 139, (R)-3-((S)-2-(4-ethyl-2,3-dioxopiperazine-1-carboxamido)-2-(thiophen-3-yl)acetamido)-7-fluoro-2-hydroxy-3,4-dihydro-2H-benzo[e][1,2]oxaborinine-8-carboxylic acid] | 30 to 500 µM
12 | CCN1CCN(C(=O)NC(C(=O)N[C@H]2Cc3ccc(F)c(C(=O)O)c3OB2O)c2cscn2)C(=O)C1=O (stereo partly drawn) [Example 165, (3R)-3-(2-(4-ethyl-2,3-dioxopiperazine-1-carboxamido)-2-(thiazol-4-yl)acetamido)-7-fluoro-2-hydroxy-3,4-dihydro-2H-benzo[e][1,2]oxaborinine-8-carboxylic acid] | 30 to 500 µM

Same assay, conditions: fluorescence polarization competition binding with Bocillin-FL; read-out: E. coli K12 PBP3 Potency

Row | Structure (SMILES) | EC50
13 | CCCN1CCN(C(=O)N[C@@H](C(=O)N[C@H]2Cc3ccc(F)c(C(=O)O)c3OB2O)[C@@H](C)O)C(=O)C1=O [Example 133, (R)-3-((2R,3R)-2-(2,3-dioxo-4-propylpiperazine-1-carboxamido)-3-hydroxybutanamido)-7-fluoro-2-hydroxy-3,4-dihydro-2H-benzo[e][1,2]oxaborinine-8-carboxylic acid] | > 500 µM
14 | CCN1CCN(C(=O)N[C@@H](C(=O)N[C@H]2Cc3ccc(F)c(C(=O)O)c3OB2O)[C@H](O)C(F)F)C(=O)C1=O [Example 163, (R)-3-((2R,3S)-2-(4-ethyl-2,3-dioxopiperazine-1-carboxamido)-4,4-difluoro-3-hydroxybutanamido)-7-fluoro-2-hydroxy-3,4-dihydro-2H-benzo[e][1,2]oxaborinine-8-carboxylic acid] | < 30 µM
15 | CCN1CCN(C(=O)N[C@@H](C(=O)N[C@H]2Cc3cccc(C(=O)O)c3OB2O)[C@H](O)C(F)F)C(=O)C1=O [Example 173, (R)-3-((2R,3S)-2-(4-ethyl-2,3-dioxopiperazine-1-carboxamido)-4,4-difluoro-3-hydroxybutanamido)-2-hydroxy-3,4-dihydro-2H-benzo[e][1,2]oxaborinine-8-carboxylic acid] | > 500 µM
16 | CCN1CCN(C(=O)N[C@H](C(=O)N[C@H]2Cc3ccc(F)c(C(=O)O)c3OB2O)[C@H](O)C(F)(F)F)C(=O)C1=O [Example 159, (R)-3-((2S,3S)-2-(4-ethyl-2,3-dioxopiperazine-1-carboxamido)-4,4,4-trifluoro-3-hydroxybutanamido)-7-fluoro-2-hydroxy-3,4-dihydro-2H-benzo[e][1,2]oxaborinine-8-carboxylic acid] | > 500 µM
17 | CCN1CCN(C(=O)N[C@H](C(=O)N[C@H]2Cc3cccc(C(=O)O)c3OB2O)[C@H](O)C(F)F)C(=O)C1=O [Example 174, (R)-3-((2S,3S)-2-(4-ethyl-2,3-dioxopiperazine-1-carboxamido)-4,4-difluoro-3-hydroxybutanamido)-2-hydroxy-3,4-dihydro-2H-benzo[e][1,2]oxaborinine-8-carboxylic acid] | > 500 µM
18 | CCN1CCN(C(=O)N[C@H](C(=O)N[C@H]2Cc3cccc(C(=O)O)c3OB2O)[C@H](C)OC)C(=O)C1=O [Example 147, (R)-3-((2S,3S)-2-(4-ethyl-2,3-dioxopiperazine-1-carboxamido)-3-methoxybutanamido)-2-hydroxy-3,4-dihydro-2H-benzo[e][1,2]oxaborinine-8-carboxylic acid] | > 500 µM
19 | CCN1CCN(C(=O)NC(C(=O)N[C@H]2Cc3cccc(C(=O)O)c3OB2O)c2cccc(O)c2O)C(=O)C1=O (stereo partly drawn) [Example 44, (3R)-3-(2-(2,3-dihydroxyphenyl)-2-(4-ethyl-2,3-dioxopiperazine-1-carboxamido)acetamido)-2-hydroxy-3,4-dihydro-2H-benzo[e][1,2]oxaborinine-8-carboxylic acid] | > 500 µM
20 | CCN1CCN(C(=O)N[C@H](C(=O)N[C@H]2Cc3ccc(F)c(C(=O)O)c3OB2O)[C@H](O)C(F)F)C(=O)C1=O [Example 164, (R)-3-((2S,3S)-2-(4-ethyl-2,3-dioxopiperazine-1-carboxamido)-4,4-difluoro-3-hydroxybutanamido)-7-fluoro-2-hydroxy-3,4-dihydro-2H-benzo[e][1,2]oxaborinine-8-carboxylic acid] | > 500 µM
